This note sets out measurements from US20050000824A1, “Phosphorus-borates with low melting points” (priority 2001, published 2005).

What all share (format): physicochemical
Data set [1] is described as follows: Determination of solubility (qualitative, mixing ionic liquid with solvent). Here is the method:
Solubility was determined only qualitatively by mixing approximately 0.5 ml of the ionic liquid with the same amount of organic solvent and shaking. All samples were checked a second time after several hours to ensure, that no slow phase separation had occured.

Data set [2] in a line: Determination of viscosity (Brookfield Cone and Plate Viscometer). Here is the method: Viscosity was measured using an LVDV-II Brookfield Cone and Plate Viscometer (1% accuracy, 0.2 repeatability). The sample cup of the viscometer was fitted with luer and purge fittings, so that a positive current of dry dinitrogen was maintained at all times during the measurements, thus avoiding absorption of atmospheric moisture. The sample cup was jacketed with a circulating water bath that was controlled by a circulator bath Grant LTD 6G (+0.1° C. accuracy).

Data set [3] in a line: Thermal decomposition observed with melting point determination. The following applies: thermal stability.

For the molecule `CCCCCCCCCCCCCC[P+](CCCCCC)(CCCCCC)CCCCCC.c1ccc2c(c1)O[B-]1(O2)Oc2ccccc2O1` [[R4P] [BBB], [(C6)3P(C14)][BBB]], the values for the Solubility result in data set [1] (solvent acetonitrile), in data set [1] (solvent hexane) and in data set [1] (solvent iso-propyl alcohol) were “Y*”, “N**” and “Y*”, respectively. In addition, the Viscosity in data set [2] (15 ° C.) came out at 6184 cP; in data set [2] (20 ° C.), 3735 cP; in data set [2] (25 ° C.), 2439 cP; in data set [2] (30 ° C.) it was 1593 cP; in data set [2] (35 ° C.) it was 1087 cP; in data set [2] (40 ° C.), 739.8 cP. For the same molecule, the Viscosity in data set [2] (45 ° C.) is reported as 538.1 cP; in data set [2] (50 ° C.), 386.7 cP; in data set [2] (55 ° C.) it was 288.3 cP; in data set [2] (60 ° C.), 217.2 cP; in data set [2] (65 ° C.), 168.2 cP; in data set [2] (70 ° C.), 126.3 cP. The Viscosity in data set [2] (75 ° C.) stood at 100.2 cP; in data set [2] (80 ° C.) it was 81.0 cP; in data set [2] (85 ° C.) it was 65.2 cP; in data set [2] (90 ° C.), 50.2 cP; in data set [2] (95 ° C.) it was 40.91 cP. The “decomposition (temperature)” value in data set [3] is “above 200 °C”.
Regarding `CCCCCCCCCCCCCC[P+](CCCCCC)(CCCCCC)CCCCCC.c1ccc2c(c1)O[B-]1(Oc3ccccc3-2)Oc2ccccc2-c2ccccc2O1` [[R4P] [BBPB], [(C6)3P(C14)][BBPB]], the Solubility result in data set [1] (solvent acetonitrile) and in data set [1] (solvent iso-propyl alcohol) was “Y*” throughout. Further, the Viscosity in data set [2] (5 ° C.) was 95020 cP; in data set [2] (10 ° C.), 59233 cP; in data set [2] (15 ° C.) it was 33737 cP; in data set [2] (20 ° C.), 20660 cP; in data set [2] (25 ° C.), 12813 cP; in data set [2] (30 ° C.) it was 8245 cP. The Viscosity in data set [2] (35 ° C.) amounted to 5453 cP; in data set [2] (40 ° C.) it was 3675 cP; in data set [2] (45 ° C.), 2703 cP; in data set [2] (50 ° C.), 1953 cP; in data set [2] (55 ° C.) it was 1393 cP; in data set [2] (60 ° C.), 1022 cP. For the same molecule, the Viscosity in data set [2] (65 ° C.) turned out to be 759.0 cP; in data set [2] (70 ° C.) it was 550.7 cP; in data set [2] (75 ° C.), 333.9 cP; in data set [2] (80 ° C.), 209.2 cP; in data set [2] (85 ° C.), 173.0 cP; in data set [2] (90 ° C.), 177.8 cP.
Take `CCCCCCCCCCCCCC[P+](CCCCCC)(CCCCCC)CCCCCC.O=C1O[B-]2(OC(=O)c3ccccc3O2)Oc2ccccc21` [[R4P] [BSB], [(C6)3P(C14)][BSB]]: the Solubility entry is reported as “Y*” in data set [1] (solvent acetonitrile) and “N**” in data set [1] (solvent hexane). The Viscosity in data set [2] (5 ° C.) is listed as 7334 cP; in data set [2] (10 ° C.) it was 4241 cP; in data set [2] (15 ° C.), 2663 cP; in data set [2] (20 ° C.) it was 1730 cP; in data set [2] (25 ° C.) it was 1164 cP; in data set [2] (30 ° C.) it was 801.4 cP. For the same molecule, the Viscosity in data set [2] (35 ° C.) came out at 566.3 cP; in data set [2] (40 ° C.), 407.0 cP; in data set [2] (45 ° C.), 300.4 cP; in data set [2] (50 ° C.), 229.6 cP; in data set [2] (55 ° C.) it was 171.4 cP; in data set [2] (60 ° C.), 132.6 cP. Moreover, the Viscosity in data set [2] (65 ° C.) worked out at 106.3 cP; in data set [2] (70 ° C.), 85.1 cP; in data set [2] (75 ° C.), 68.4 cP; in data set [2] (80 ° C.), 56.4 cP; in data set [2] (85 ° C.), 47.2 cP; in data set [2] (90 ° C.) it was 39.9 cP. In data set [2] (95 ° C.), this molecule showed a Viscosity of 34.1 cP.
